Experimental data taken from US8501908B2, “Immunogenic peptides” (priority 2008, dated 2013).

Experiments:
[1] = tested on: PBMCs from DLBCL patients; assay: γ-IFN release ELISPOT, PBMCs of DLBCL patients after short-term culture with peptides; type: cell-based, human; set-up: γ-IFN response to peptides: unit not given here; settings: for γ-IFN response to peptides: triplicate ELISPOT, ± SD
[2] = tested on: PBMCs from healthy donors; assay: γ-IFN release ELISPOT, PBMCs of healthy donors after short-term culture with peptides; type: cell-based, human; settings: triplicate ELISPOT, ± SD
[3] = Patient 1, De novo DLBCL, DRB1-0102, group Significant response
[4] = Patient 2, De novo DLBCL, DRB1-0101, group Significant response
[5] = Patient 3, De novo DLBCL, DRB1-0301, group Significant response
[6] = Patient 4, De novo DLBCL, DRB1-0102, group Significant response
[7] = Patient 8, De novo DLBCL, DRB1-1501, group Significant response
[8] = Patient 9, De novo DLBCL, DRB1-0301, group Significant response
[9] = Patient 10, De novo DLBCL, DRB1-0101, group No significant response
[10] = Patient 12, De novo DLBCL, DRB1-0401, group Significant response
[11] = Patient 15, De novo DLBCL, DRB1-1301, group No significant response
[12] = Patient 17, De novo DLBCL, DRB1-0301, group No significant response
[13] = Patient 18, De novo DLBCL, DRB1-0401, group No significant response
[14] = Patient 19, De novo DLBCL, DRB1-1104, group No significant response
[15] = Patient 20, De novo DLBCL, DRB1-1303, group No significant response
[16] = Patient 21, De novo DLBCL, DRB1-0301, group No significant response
[17] = Patient 24, De novo DLBCL, DRB1-1301, group Significant response
[18] = Patient 28, Trans DLBCL, DRB1-0701, group No significant response
[19] = Patient 37, Trans DLBCL, DRB1-0103, group Significant response
[20] = Patient 48, T-cell rich DLBCL, DRB1-0301, group Significant response
[21] = Patient 61, De novo DLBCL, DRB1-0401, group No significant response

## ILKEPVHGV [HIV peptide, reference compound]
[1]; DLBCL patients (FIG. 5), short term culture, p<0.05
  TH γ-IFN response to peptides at time of diagnosis and after one year: No significant response
[1]; HLA-A*0201-positive DLBCL patients (12 and 48, FIG. 2a), short term culture, p<0.05
  γ-IFN response to CTL peptides at time of diagnosis and after one year: No significant response

## NHPVRFLQAQPIVPVQRAAE (listed as Homo sapiens) [PASD1(10)]
[2]; Healthy donor HD 1, DRB1-0102
  γ-IFN response to peptides: 10 ± 2
[2]; Healthy donor HD 2, DRB1-0401
  γ-IFN response to peptides: 4 ± 2
[2]; Healthy donor HD 3, DRB1-0401
  γ-IFN response to peptides: 2 ± 1
[2]; Healthy donor HD 4, DRB1-0301
  γ-IFN response to peptides: 18 ± 2
[2]; Healthy donor HD 5, DRB1-0301
  γ-IFN response to peptides: 16 ± 2
[1]; [3]
  γ-IFN response to peptides: 40 ± 2
[1]; [4]
  γ-IFN response to peptides: 40 ± 4
[1]; [5]
  γ-IFN response to peptides: 32 ± 2
[1]; [6]
  γ-IFN response to peptides: 32 ± 4
[1]; [7]
  γ-IFN response to peptides: 18 ± 4
[1]; [8]
  γ-IFN response to peptides: 14 ± 2
[1]; [9]
  γ-IFN response to peptides: 32 ± 2
[1]; [10]
  γ-IFN response to peptides: 32 ± 4
[1]; [11]
  γ-IFN response to peptides: 18 ± 4
[1]; [12]
  γ-IFN response to peptides: 10 ± 4
[1]; [13]
  γ-IFN response to peptides: 22 ± 2
[1]; [14]
  γ-IFN response to peptides: 12 ± 2
[1]; [15]
  γ-IFN response to peptides: 16 ± 2
[1]; [16]
  γ-IFN response to peptides: 18 ± 2
[1]; [17]
  γ-IFN response to peptides: 16 ± 4
[1]; [18]
  γ-IFN response to peptides: 10 ± 2
[1]; [19]
  γ-IFN response to peptides: 34 ± 2
[1]; [20]
  γ-IFN response to peptides: 38 ± 2
[1]; [21]
  γ-IFN response to peptides: 6 ± 2

## DESFRKYTAFTIPSMNNETP (Human immunodeficiency virus type 1) [HIV-1, control irrelevant peptide from HIV-1 reverse transcriptase used with the TH peptides, reference compound]
[2]; Healthy donor HD 1, DRB1-0102
  γ-IFN response to peptides: 8 ± 2
[2]; Healthy donor HD 2, DRB1-0401
  γ-IFN response to peptides: 6 ± 2
[2]; Healthy donor HD 3, DRB1-0401
  γ-IFN response to peptides: 1 ± 1
[2]; Healthy donor HD 4, DRB1-0301
  γ-IFN response to peptides: 10 ± 2
[2]; Healthy donor HD 5, DRB1-0301
  γ-IFN response to peptides: 8 ± 2
[1]; [3]
  γ-IFN response to peptides: 2 ± 1
[1]; [4]
  γ-IFN response to peptides: 16 ± 2
[1]; [5]
  γ-IFN response to peptides: 8 ± 2
[1]; [6]
  γ-IFN response to peptides: 14 ± 2
[1]; [7]
  γ-IFN response to peptides: 12 ± 4
[1]; [8]
  γ-IFN response to peptides: 4 ± 2
[1]; [9]
  γ-IFN response to peptides: 16 ± 4
[1]; [10]
  γ-IFN response to peptides: 12 ± 2
[1]; [11]
  γ-IFN response to peptides: 14 ± 4
[1]; [12]
  γ-IFN response to peptides: 10 ± 2
[1]; [13]
  γ-IFN response to peptides: 14 ± 2
[1]; [14]
  γ-IFN response to peptides: 12 ± 2
[1]; [15]
  γ-IFN response to peptides: 10 ± 2
[1]; [16]
  γ-IFN response to peptides: 10 ± 2
[1]; [17]
  γ-IFN response to peptides: 8 ± 2
[1]; [18]
  γ-IFN response to peptides: 6 ± 2
[1]; [19]
  γ-IFN response to peptides: 16 ± 2
[1]; [20]
  γ-IFN response to peptides: 12 ± 2
[1]; [21]
  γ-IFN response to peptides: 12 ± 2

## AENISSLLGHLPAEIVGKKL (listed as Homo sapiens) [PASD1(8)]
[2]; Healthy donor HD 1, DRB1-0102
  γ-IFN response to peptides: 18 ± 2
[2]; Healthy donor HD 2, DRB1-0401
  γ-IFN response to peptides: 10 ± 2
[2]; Healthy donor HD 3, DRB1-0401
  γ-IFN response to peptides: 6 ± 2
[2]; Healthy donor HD 4, DRB1-0301
  γ-IFN response to peptides: 10 ± 2
[2]; Healthy donor HD 5, DRB1-0301
  γ-IFN response to peptides: 10 ± 2
[1]; [3]
  γ-IFN response to peptides: 32 ± 3
[1]; [4]
  γ-IFN response to peptides: 36 ± 6
[1]; [5]
  γ-IFN response to peptides: 18 ± 2
[1]; [6]
  γ-IFN response to peptides: 28 ± 4
[1]; [7]
  γ-IFN response to peptides: 20 ± 4
[1]; [8]
  γ-IFN response to peptides: 12 ± 3
[1]; [9]
  γ-IFN response to peptides: 36 ± 4
[1]; [10]
  γ-IFN response to peptides: 24 ± 4
[1]; [11]
  γ-IFN response to peptides: 10 ± 1
[1]; [12]
  γ-IFN response to peptides: 14 ± 2
[1]; [13]
  γ-IFN response to peptides: 20 ± 2
[1]; [14]
  γ-IFN response to peptides: 24 ± 2
[1]; [15]
  γ-IFN response to peptides: 18 ± 2
[1]; [16]
  γ-IFN response to peptides: 14 ± 2
[1]; [17]
  γ-IFN response to peptides: 28 ± 4
[1]; [18]
  γ-IFN response to peptides: 16 ± 2
[1]; [19]
  γ-IFN response to peptides: 16 ± 2
[1]; [20]
  γ-IFN response to peptides: 40 ± 6
[1]; [21]
  γ-IFN response to peptides: 12 ± 2
